Source: article PMC12090182, “Repurposing of the RIPK1-Selective Benzo[1,4]oxazepin-4-one Scaffold for the Development of a Type III LIMK1/2 Inhibitor” (ACS Chemical Biology, 2025)
Where two headings read alike, the source gives them in different places.

Tested on: HEK293T cells
Type: cell-based
Description: To assess the influence on cell health, a high-content screening in living cells called the multiplex high-content assay, as described previously by Tjaden et al., was performed.[38] In brief, HEK293T (ATCC CRL-1573) and U2OS (ATCCHTB-96) were cultured in DMEM plus L-glutamine (high glucose) supplemented by 10% FBS (Gibco) and penicillin/streptomycin (Gibco). MRC-9 fibroblasts ([…]) were cultured in EMEM plus L-glutamine supplemented by 10% FBS (Gibco) and penicillin/streptomycin (Gibco). Cells were seeded at a density of 1250 cells per well in a 384-well plate in a culture medium (cell culture microplate, PS, f-bottom, μClear, 781091, Greiner), with a volume of 50 μL per well. All outer wells were filled with 100 μL of PBS buffer (Gibco). […] The cell shape and fluorescence were measured before treatment and 12, 24, and 48 h after compound treatment using the CQ1 high-content confocal microscope (Yokogawa, Musashino, Japan). […] The compounds were tested at 1 and 10 μM, respectively. Acquired images of the cells were processed using Yokogawa CellPathfinder software (v3.04.02.02). […] Results were normalized to cells exposed to 0.1% DMSO. All compounds were tested in biological duplicates, and SEM (standard error of mean) was calculated of biological duplicates.

[1] = 1 µM, 0 h after treatment, HEK293T, biological replicate 1
[2] = 1 µM, 0 h after treatment, HEK293T, biological replicate 2
[3] = 1 µM, 12 h after treatment, HEK293T, biological replicate 1
[4] = 1 µM, 12 h after treatment, HEK293T, biological replicate 2
[5] = 1 µM, 24 h after treatment, HEK293T, biological replicate 1
[6] = 1 µM, 24 h after treatment, HEK293T, biological replicate 2
[7] = 1 µM, 48 h after treatment, HEK293T, biological replicate 1
[8] = 1 µM, 48 h after treatment, HEK293T, biological replicate 2
[9] = 10 µM, 0 h after treatment, HEK293T, biological replicate 1
[10] = 10 µM, 0 h after treatment, HEK293T, biological replicate 2
[11] = 10 µM, 12 h after treatment, HEK293T, biological replicate 1
[12] = 10 µM, 12 h after treatment, HEK293T, biological replicate 2
[13] = 10 µM, 24 h after treatment, HEK293T, biological replicate 1
[14] = 10 µM, 24 h after treatment, HEK293T, biological replicate 2
[15] = 10 µM, 48 h after treatment, HEK293T, biological replicate 1
[16] = 10 µM, 48 h after treatment, HEK293T, biological replicate 2

## CN1C(=O)[C@@H](N2CCc3c(C(N)=O)nn(Cc4ccccc4)c3C2=O)COc2ccccc21 [Compound 11]
human, 0 h, 10 µM
  Population with membrane disruption (%): 0.00%
human, 12 h, 10 µM
  Population with membrane disruption (%): 0.00%
human, 24 h, 10 µM
  Population with membrane disruption (%): 0.00%

## CC(C)C(=O)Nc1ncc(C(=O)NCCN(Cc2ccccc2)C(=O)c2ccc(S(=O)(=O)Nc3ccccc3)cc2)s1 [TH470]
[1]
  Cell count normalized to cells treated with DMSO control: 0.821
  Cell count per well: 245
  Population Fragmented Nuclei (%): 8.67%
  Population Healthy Nuclei (%): 36.73%
  Population Pyknosed Nuclei (%): 54.59%
  Population apoptotic cell (%): 45.79%
  Population cell that influence microtubule strucutre (%): 23.61%
  Population with increased mitochondrial mass (%): 62.50%
  Population with membrane disruption (%): 0.00%
[2]
  Cell count normalized to cells treated with DMSO control: 1.084
  Cell count per well: 248
  Population Fragmented Nuclei (%): 6.57%
  Population Healthy Nuclei (%): 60.56%
  Population Pyknosed Nuclei (%): 32.86%
  Population apoptotic cell (%): 65.71%
  Population cell that influence microtubule strucutre (%): 23.26%
  Population with increased mitochondrial mass (%): 77.52%
  Population with membrane disruption (%): 0.00%
[3]
  Cell count normalized to cells treated with DMSO control: 0.762
  Cell count per well: 347
  Population Fragmented Nuclei (%): 6.25%
  Population Healthy Nuclei (%): 79.38%
  Population Pyknosed Nuclei (%): 14.38%
  Population apoptotic cell (%): 34.78%
  Population cell that influence microtubule strucutre (%): 27.17%
  Population with increased mitochondrial mass (%): 44.49%
  Population with membrane disruption (%): 0.79%
[4]
  Cell count normalized to cells treated with DMSO control: 1.119
  Cell count per well: 392
  Population Fragmented Nuclei (%): 8.45%
  Population Healthy Nuclei (%): 80.85%
  Population Pyknosed Nuclei (%): 10.70%
  Population apoptotic cell (%): 44.74%
  Population cell that influence microtubule strucutre (%): 20.91%
  Population with increased mitochondrial mass (%): 53.66%
  Population with membrane disruption (%): 0.70%
[5]
  Cell count normalized to cells treated with DMSO control: 0.7629
  Cell count per well: 463
  Population Fragmented Nuclei (%): 9.77%
  Population Healthy Nuclei (%): 77.91%
  Population Pyknosed Nuclei (%): 12.33%
  Population apoptotic cell (%): 49.06%
  Population cell that influence microtubule strucutre (%): 18.21%
  Population with increased mitochondrial mass (%): 28.66%
  Population with membrane disruption (%): 1.49%
[6]
  Cell count normalized to cells treated with DMSO control: 1.065
  Cell count per well: 481
  Population Fragmented Nuclei (%): 9.19%
  Population Healthy Nuclei (%): 81.84%
  Population Pyknosed Nuclei (%): 8.97%
  Population apoptotic cell (%): 42.50%
  Population cell that influence microtubule strucutre (%): 14.25%
  Population with increased mitochondrial mass (%): 34.25%
  Population with membrane disruption (%): 0.55%
[7]
  Cell count normalized to cells treated with DMSO control: 0.791
  Cell count per well: 800
  Population Fragmented Nuclei (%): 15.22%
  Population Healthy Nuclei (%): 78.13%
  Population Pyknosed Nuclei (%): 6.65%
  Population apoptotic cell (%): 21.15%
  Population cell that influence microtubule strucutre (%): 12.27%
  Population with increased mitochondrial mass (%): 18.82%
  Population with membrane disruption (%): 1.47%
[8]
  Cell count normalized to cells treated with DMSO control: 1.233
  Cell count per well: 842
  Population Fragmented Nuclei (%): 13.32%
  Population Healthy Nuclei (%): 80.63%
  Population Pyknosed Nuclei (%): 6.05%
  Population apoptotic cell (%): 22.00%
  Population cell that influence microtubule strucutre (%): 11.71%
  Population with increased mitochondrial mass (%): 13.96%
  Population with membrane disruption (%): 2.70%
[9]
  Cell count normalized to cells treated with DMSO control: 0.9315
  Cell count per well: 278
  Population Fragmented Nuclei (%): 7.95%
  Population Healthy Nuclei (%): 44.77%
  Population Pyknosed Nuclei (%): 47.28%
  Population apoptotic cell (%): 36.28%
  Population cell that influence microtubule strucutre (%): 15.89%
  Population with increased mitochondrial mass (%): 64.49%
  Population with membrane disruption (%): 0.00%
[10]
  Cell count normalized to cells treated with DMSO control: 0.9485
  Cell count per well: 217
  Population Fragmented Nuclei (%): 6.86%
  Population Healthy Nuclei (%): 61.76%
  Population Pyknosed Nuclei (%): 31.37%
  Population apoptotic cell (%): 54.69%
  Population cell that influence microtubule strucutre (%): 26.19%
  Population with increased mitochondrial mass (%): 83.33%
  Population with membrane disruption (%): 0.00%
[11]
  Cell count normalized to cells treated with DMSO control: 0.7906
  Cell count per well: 360
  Population Fragmented Nuclei (%): 7.79%
  Population Healthy Nuclei (%): 76.01%
  Population Pyknosed Nuclei (%): 16.20%
  Population apoptotic cell (%): 50.00%
  Population cell that influence microtubule strucutre (%): 67.21%
  Population with increased mitochondrial mass (%): 73.77%
  Population with membrane disruption (%): 0.00%
[12]
  Cell count normalized to cells treated with DMSO control: 0.8648
  Cell count per well: 303
  Population Fragmented Nuclei (%): 4.80%
  Population Healthy Nuclei (%): 76.38%
  Population Pyknosed Nuclei (%): 18.82%
  Population apoptotic cell (%): 66.67%
  Population cell that influence microtubule strucutre (%): 63.77%
  Population with increased mitochondrial mass (%): 85.02%
  Population with membrane disruption (%): 0.97%
[13]
  Cell count normalized to cells treated with DMSO control: 0.6459
  Cell count per well: 392
  Population Fragmented Nuclei (%): 10.66%
  Population Healthy Nuclei (%): 68.30%
  Population Pyknosed Nuclei (%): 21.04%
  Population apoptotic cell (%): 42.47%
  Population cell that influence microtubule strucutre (%): 67.93%
  Population with increased mitochondrial mass (%): 75.53%
  Population with membrane disruption (%): 0.00%
[14]
  Cell count normalized to cells treated with DMSO control: 0.6866
  Cell count per well: 310
  Population Fragmented Nuclei (%): 8.92%
  Population Healthy Nuclei (%): 72.12%
  Population Pyknosed Nuclei (%): 18.96%
  Population apoptotic cell (%): 45.10%
  Population cell that influence microtubule strucutre (%): 52.06%
  Population with increased mitochondrial mass (%): 79.38%
  Population with membrane disruption (%): 1.55%
[15]
  Cell count normalized to cells treated with DMSO control: 0.5428
  Cell count per well: 549
  Population Fragmented Nuclei (%): 15.79%
  Population Healthy Nuclei (%): 71.54%
  Population Pyknosed Nuclei (%): 12.67%
  Population apoptotic cell (%): 44.62%
  Population cell that influence microtubule strucutre (%): 57.49%
  Population with increased mitochondrial mass (%): 61.58%
  Population with membrane disruption (%): 2.45%
[16]
  Cell count normalized to cells treated with DMSO control: 0.5405
  Cell count per well: 369
  Population Fragmented Nuclei (%): 12.20%
  Population Healthy Nuclei (%): 75.00%
  Population Pyknosed Nuclei (%): 12.80%
  Population apoptotic cell (%): 55.81%
  Population cell that influence microtubule strucutre (%): 64.68%
  Population with increased mitochondrial mass (%): 73.81%
  Population with membrane disruption (%): 1.19%
